Measured values: ChEMBL document CHEMBL5380860, “Design, Synthesis, and Antitumor Activity of Potent and Selective EGFR L858R/T790M Inhibitors and Identification of a Combination Therapy to Overcome Acquired Resistance in Models of Non-small-cell Lung Cancer” (J Med Chem, 2023)
Activity calls are given as the source filed them. The rule behind the calls is not given here.

Assays:
Mus musculus [1] = assay: In vivo inhibition of EGFR L858R/T790M mutant in ip dosed NCI-H1975 cells xenografted BALB/c mouse assessed as inhibition of AKT phosphorylation at Ser473 residue in tumor by immunoblot analysis; assay type: functional, organism-based; settings: dose 5-20 mg/kg/day
HCC827 [2] = assay: Induction of apoptosis in human HCC827 cells assessed as induction of PARP cleavage pretreated with compound for 4 hrs followed by incubation with EGF for 10 mins by western blot analysis; assay type: functional, cell-based; settings: dose 0.1-10 µM, time 250.0 min
NCI-H1975 [3] = assay: Antitumor activity against human NCI-H1975 cells xenografted in BALB/c mouse assessed as decrease in Ki-67 expression in tumor at 5 to 20 mg/kg/day, ip by immunohistochemistry; assay type: functional, organism-based; settings: dose 5-20 mg/kg/day
Mus musculus [4] = assay: In vivo inhibition of EGFR L858R/T790M mutant in NCI-H1975 cells xenografted BALB/c mouse assessed as inhibition of EGFR phosphorylation at Tyr1068 residue at 5 to 20 mg/kg/day, ip in tumor by immunohistochemistry; assay type: functional, organism-based; settings: dose 5-20 mg/kg/day
[5] = (§1) Toxicity in BALB/c mouse xenografted with N-(3-((6-Fluoro-2-((4-(4-methylpiperazin-1-yl)phenyl)amino)quinazolin-4-yl)amino)phenyl)acrylamide-resistant human NCI-H1975 cells assessed as changes in heart morphological changes at 20 mg/kg/day, ip in presence of ACK1 inhibitor, dasatinib by hematoxylin-eosin staining based analysis; assay type: organism-based; settings: in vivo
A549 [6] = assay: Inhibition of clonogenicity in human A549 cells assessed as inhibition of colony formation at 0.1 to 10 uM incubated for 14 days by crystal violet staining based analysis; assay type: toxicity, cell-based; settings: a549, 336 h, dose 0.1-10 µM, time 14 day
NCI-H1975 [7] = assay: Antiproliferative activity against N-(3-((6-Fluoro-2-((4-(4-methylpiperazin-1-yl)phenyl)amino)quinazolin-4-yl)amino)phenyl)acrylamide-resistant human NCI-H1975 cells assessed as reduction in cell viability at compound:AIM100 concentration ratio of 3:1 to 1:3 measured after 72 hrs in presence of ACK1 inhibitor, AIM100 by MTT assay; assay type: functional, cell-based
[8] = Clearance in Sprague-Dawley rat at 1 mg/kg, iv by LC-MS analysis; assay type: ADME, organism-based; settings: in vivo
NCI-H1975 [9] = assay: Induction of apoptosis in human NCI-H1975 cells assessed as increase in caspase-3/7 activity at 0.1 to 10 uM incubated for 24 hrs by Caspase-Glo reagent based luminescence analysis; assay type: functional, cell-based; settings: dose 0.1-10 µM
[10] = as §1, with “liver” for “heart”; assay type: organism-based; settings: in vivo
[11] = Toxicity in BALB/c mouse xenografted with human NCI-H1975 cells assessed as effect on body weight at 5 to 20 mg/kg/day, ip; assay type: organism-based; settings: in vivo, dose 5-20 mg/kg/day
[12] = Covalent binding affinity to L-cysteine assessed as increase in 619.2 Da mass at L-cysteine to compound concentration ratio of 1:4 incubated for 8 hrs by LC-MS analysis
[13] = Apparent volume of distribution in Sprague-Dawley rat at 1 mg/kg, iv by LC-MS analysis; assay type: ADME, organism-based; settings: in vivo, read-out: Vz
[14] = target: T1, Proto-oncogene tyrosine-protein kinase Src (Homo sapiens, UniProt P12931); assay: Inhibition of human wild type partial length Src kinase (L240 to L536 residues) expressed in bacterial expression system by KINOMEscan analysis
HCC827 [15] = assay: Induction of apoptosis in human HCC827 cells assessed as increase in caspase-3/7 activity at 0.1 to 10 uM incubated for 24 hrs by Caspase-Glo reagent based luminescence analysis; assay type: functional, cell-based; settings: dose 0.1-10 µM
[16] = AUC (0 to t) in Sprague-Dawley rat at 1 mg/kg, iv by LC-MS analysis; assay type: ADME, organism-based; parameters: dose 1 mg/kg, route iv; settings: in vivo
Mus musculus [17] = assay: In vivo inhibition of EGFR L858R/T790M mutant in N-(3-((6-Fluoro-2-((4-(4-methylpiperazin-1-yl)phenyl)amino)quinazolin-4-yl)amino)phenyl)acrylamide-resistant human NCI-H1975 cells xenografted BALB/c mouse assessed as inhibition of EGFR phosphorylation at Tyr1068 residue in tumor at 20 mg/kg/day, ip in presence of ACK1 inhibitor, dasatinib by immunoblot analysis; assay type: functional, organism-based
[18] = GSH reactivity in PBS buffer assessed as half life by HPLC analysis; assay type: ADME; settings: PBS buffer with GSH
wild type EGFR = wild type EGFR (Homo sapiens, UniProt P00533); assay: Inhibition of human wild type partial length EGFR (R669 to V1011 residues) expressed in bacterial expression system assessed as residual activity at 1 uM by KINOMEscan analysis; assay type: toxicity; settings: read-out: Activity
NCI-H1975 [19] = assay: Synergistic antiproliferative activity against N-(3-((6-Fluoro-2-((4-(4-methylpiperazin-1-yl)phenyl)amino)quinazolin-4-yl)amino)phenyl)acrylamide-resistant human NCI-H1975 cells assessed as combination index measured after 72 hrs in presence of ACK1 inhibitor, AIM100 by MTT assay; assay type: functional
[20] = Toxicity in BALB/c mouse xenografted with N-(3-((6-Fluoro-2-((4-(4-methylpiperazin-1-yl)phenyl)amino)quinazolin-4-yl)amino)phenyl)acrylamide-resistant human NCI-H1975 cells assessed as effect on body weight at 20 mg/kg/day, ip in presence of ACK1 inhibitor, dasatinib; assay type: organism-based; settings: in vivo
[21] = target: Epidermal growth factor receptor (Homo sapiens, UniProt P00533, L858R/T790M); assay: Inhibition of human partial length EGFR (R669 to V1011 residues) L858R/T790M mutant expressed in mammalian expression system by KINOMEscan analysis
[22] = AUC (0 to infinity) in Sprague-Dawley rat at 1 mg/kg, iv by LC-MS analysis; assay type: ADME, organism-based; parameters: dose 1 mg/kg, route iv; settings: in vivo
[23] = as §1, with “spleen” for “heart”; assay type: organism-based; settings: in vivo
A549 [24] = assay: Induction of apoptosis in human A549 cells assessed as increase in caspase-3/7 activity at 0.1 to 10 uM incubated for 24 hrs by Caspase-Glo reagent based luminescence analysis; assay type: toxicity, cell-based; settings: a549, 24 h, dose 0.1-10 µM
[25] = tested on: Epidermal growth factor receptor (Homo sapiens), P00533 [L858R,T790M]; assay: Inhibition of EGFR L858R/T790M mutant in N-(3-((6-Fluoro-2-((4-(4-methylpiperazin-1-yl)phenyl)amino)quinazolin-4-yl)amino)phenyl)acrylamide-resistant human NCI-H1975 cells assessed as inhibition of EGF-induced EGFR phosphorylation at Tyr1068 residue pretreated with compound for 4 hrs followed by incubation with EGF for 10 mins by western blot analysis; assay type: cell-based; settings: time 250.0 min
NCI-H1975 [26] = assay: Induction of apoptosis in human NCI-H1975 cells assessed as induction of PARP cleavage pretreated with compound for 4 hrs followed by incubation with EGF for 10 mins by western blot analysis; assay type: functional, cell-based; settings: dose 0.1-10 µM, time 250.0 min
[27] = Half life in Sprague-Dawley rat at 1 mg/kg, iv by LC-MS analysis; assay type: ADME, organism-based; settings: in vivo
[28] = target: T1, Proto-oncogene tyrosine-protein kinase Src; assay: Inhibition of human wild type partial length Src kinase (L240 to L536 residues) expressed in bacterial expression system assessed as residual activity at 1 uM by KINOMEscan analysis
A549 [29] = assay: Induction of apoptosis in human A549 cells assessed as induction of caspase-3 cleavage at 0.1 to 10 uM pretreated with compound for 4 hrs followed by incubation with EGF for 10 mins by western blot analysis; assay type: toxicity, cell-based; settings: a549, 4.167 h, dose 0.1-10 µM, time 250 min
Mus musculus [30] = species: Mus musculus; settings: BALB/c, dose 10.0 mg/kg/day, route po

T1 sequence (P12931 2-536 limits assumed): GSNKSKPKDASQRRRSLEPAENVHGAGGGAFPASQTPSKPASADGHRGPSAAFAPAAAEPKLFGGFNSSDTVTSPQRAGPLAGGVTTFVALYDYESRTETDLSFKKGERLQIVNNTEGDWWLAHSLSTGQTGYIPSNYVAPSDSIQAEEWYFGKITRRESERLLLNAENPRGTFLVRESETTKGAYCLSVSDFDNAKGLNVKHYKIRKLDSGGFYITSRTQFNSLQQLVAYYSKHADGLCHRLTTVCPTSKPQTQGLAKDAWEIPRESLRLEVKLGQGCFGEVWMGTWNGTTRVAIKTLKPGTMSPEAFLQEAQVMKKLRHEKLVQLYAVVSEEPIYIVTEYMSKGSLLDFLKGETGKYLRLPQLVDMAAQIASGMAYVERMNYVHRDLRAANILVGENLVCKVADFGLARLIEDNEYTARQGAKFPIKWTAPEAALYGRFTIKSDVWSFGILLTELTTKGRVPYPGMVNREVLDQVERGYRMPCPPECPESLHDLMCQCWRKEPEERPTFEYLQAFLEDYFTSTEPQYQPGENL
Epidermal growth factor receptor (Homo sapiens), P00533 [L858R,T790M], sequence (P00533 whole entry T790M/L858R, looked up): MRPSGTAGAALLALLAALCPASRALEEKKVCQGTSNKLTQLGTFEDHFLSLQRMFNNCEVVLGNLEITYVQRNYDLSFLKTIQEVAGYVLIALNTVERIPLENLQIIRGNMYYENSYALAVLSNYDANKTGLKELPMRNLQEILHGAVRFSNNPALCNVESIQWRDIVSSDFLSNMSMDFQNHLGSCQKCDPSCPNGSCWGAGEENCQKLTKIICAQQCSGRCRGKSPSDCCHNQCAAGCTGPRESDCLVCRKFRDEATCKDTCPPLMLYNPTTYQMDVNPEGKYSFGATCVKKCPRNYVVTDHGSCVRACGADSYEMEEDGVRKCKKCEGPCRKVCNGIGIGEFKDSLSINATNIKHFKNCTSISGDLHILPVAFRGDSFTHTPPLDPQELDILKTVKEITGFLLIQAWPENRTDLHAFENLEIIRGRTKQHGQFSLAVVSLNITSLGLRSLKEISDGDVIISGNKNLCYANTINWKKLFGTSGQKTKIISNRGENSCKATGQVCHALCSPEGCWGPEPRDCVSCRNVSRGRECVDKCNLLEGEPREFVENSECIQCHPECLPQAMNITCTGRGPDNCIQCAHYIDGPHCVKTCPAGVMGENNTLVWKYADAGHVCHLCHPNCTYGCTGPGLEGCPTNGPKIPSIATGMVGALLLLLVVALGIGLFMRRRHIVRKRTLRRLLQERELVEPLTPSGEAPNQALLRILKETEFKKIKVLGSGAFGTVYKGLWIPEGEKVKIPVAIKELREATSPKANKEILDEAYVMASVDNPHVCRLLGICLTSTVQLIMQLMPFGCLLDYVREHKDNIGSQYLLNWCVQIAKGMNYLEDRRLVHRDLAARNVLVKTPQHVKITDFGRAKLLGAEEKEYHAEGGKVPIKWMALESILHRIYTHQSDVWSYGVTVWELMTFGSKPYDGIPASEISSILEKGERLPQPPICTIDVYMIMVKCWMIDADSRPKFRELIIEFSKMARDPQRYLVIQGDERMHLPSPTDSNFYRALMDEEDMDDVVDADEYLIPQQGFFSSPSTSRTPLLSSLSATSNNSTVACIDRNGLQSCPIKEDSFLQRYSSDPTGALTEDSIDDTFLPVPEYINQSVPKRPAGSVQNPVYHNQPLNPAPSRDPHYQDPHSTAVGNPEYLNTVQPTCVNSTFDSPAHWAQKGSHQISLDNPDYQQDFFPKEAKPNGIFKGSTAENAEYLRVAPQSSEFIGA
wild type EGFR, sequence (P00533 whole entry, the tested form may be a part): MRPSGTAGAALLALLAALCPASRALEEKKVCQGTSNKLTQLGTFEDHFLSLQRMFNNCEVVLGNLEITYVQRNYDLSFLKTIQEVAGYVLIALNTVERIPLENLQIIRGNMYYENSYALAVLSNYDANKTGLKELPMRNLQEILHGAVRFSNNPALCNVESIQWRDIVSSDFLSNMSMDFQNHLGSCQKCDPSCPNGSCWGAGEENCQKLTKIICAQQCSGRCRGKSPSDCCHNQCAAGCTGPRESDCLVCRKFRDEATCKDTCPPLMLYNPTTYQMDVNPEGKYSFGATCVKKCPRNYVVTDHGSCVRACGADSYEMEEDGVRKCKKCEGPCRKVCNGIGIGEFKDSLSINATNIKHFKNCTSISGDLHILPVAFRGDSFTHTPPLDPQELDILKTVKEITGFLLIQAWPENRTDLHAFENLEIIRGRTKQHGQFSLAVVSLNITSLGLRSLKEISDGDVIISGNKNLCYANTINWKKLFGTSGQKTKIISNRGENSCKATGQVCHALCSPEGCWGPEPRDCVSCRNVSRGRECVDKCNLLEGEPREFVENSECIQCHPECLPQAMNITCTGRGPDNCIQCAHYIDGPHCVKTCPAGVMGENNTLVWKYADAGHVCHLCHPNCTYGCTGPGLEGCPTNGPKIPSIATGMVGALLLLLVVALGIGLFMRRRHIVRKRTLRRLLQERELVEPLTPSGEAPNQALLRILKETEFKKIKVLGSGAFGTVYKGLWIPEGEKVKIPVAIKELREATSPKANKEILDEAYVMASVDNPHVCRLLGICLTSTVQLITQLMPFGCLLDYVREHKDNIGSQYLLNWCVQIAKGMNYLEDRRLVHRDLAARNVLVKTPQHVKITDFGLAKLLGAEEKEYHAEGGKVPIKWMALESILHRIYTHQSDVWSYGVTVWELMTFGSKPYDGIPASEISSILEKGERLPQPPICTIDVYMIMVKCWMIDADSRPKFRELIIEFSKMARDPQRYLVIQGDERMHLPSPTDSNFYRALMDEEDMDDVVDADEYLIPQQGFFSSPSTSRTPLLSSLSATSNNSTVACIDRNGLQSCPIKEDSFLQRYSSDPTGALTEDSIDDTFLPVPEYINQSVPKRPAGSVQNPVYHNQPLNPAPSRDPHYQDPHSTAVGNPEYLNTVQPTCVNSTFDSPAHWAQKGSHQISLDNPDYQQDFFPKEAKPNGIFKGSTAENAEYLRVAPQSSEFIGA
Epidermal growth factor receptor, sequence (P00533 25-1210 T790M/L858R limits assumed): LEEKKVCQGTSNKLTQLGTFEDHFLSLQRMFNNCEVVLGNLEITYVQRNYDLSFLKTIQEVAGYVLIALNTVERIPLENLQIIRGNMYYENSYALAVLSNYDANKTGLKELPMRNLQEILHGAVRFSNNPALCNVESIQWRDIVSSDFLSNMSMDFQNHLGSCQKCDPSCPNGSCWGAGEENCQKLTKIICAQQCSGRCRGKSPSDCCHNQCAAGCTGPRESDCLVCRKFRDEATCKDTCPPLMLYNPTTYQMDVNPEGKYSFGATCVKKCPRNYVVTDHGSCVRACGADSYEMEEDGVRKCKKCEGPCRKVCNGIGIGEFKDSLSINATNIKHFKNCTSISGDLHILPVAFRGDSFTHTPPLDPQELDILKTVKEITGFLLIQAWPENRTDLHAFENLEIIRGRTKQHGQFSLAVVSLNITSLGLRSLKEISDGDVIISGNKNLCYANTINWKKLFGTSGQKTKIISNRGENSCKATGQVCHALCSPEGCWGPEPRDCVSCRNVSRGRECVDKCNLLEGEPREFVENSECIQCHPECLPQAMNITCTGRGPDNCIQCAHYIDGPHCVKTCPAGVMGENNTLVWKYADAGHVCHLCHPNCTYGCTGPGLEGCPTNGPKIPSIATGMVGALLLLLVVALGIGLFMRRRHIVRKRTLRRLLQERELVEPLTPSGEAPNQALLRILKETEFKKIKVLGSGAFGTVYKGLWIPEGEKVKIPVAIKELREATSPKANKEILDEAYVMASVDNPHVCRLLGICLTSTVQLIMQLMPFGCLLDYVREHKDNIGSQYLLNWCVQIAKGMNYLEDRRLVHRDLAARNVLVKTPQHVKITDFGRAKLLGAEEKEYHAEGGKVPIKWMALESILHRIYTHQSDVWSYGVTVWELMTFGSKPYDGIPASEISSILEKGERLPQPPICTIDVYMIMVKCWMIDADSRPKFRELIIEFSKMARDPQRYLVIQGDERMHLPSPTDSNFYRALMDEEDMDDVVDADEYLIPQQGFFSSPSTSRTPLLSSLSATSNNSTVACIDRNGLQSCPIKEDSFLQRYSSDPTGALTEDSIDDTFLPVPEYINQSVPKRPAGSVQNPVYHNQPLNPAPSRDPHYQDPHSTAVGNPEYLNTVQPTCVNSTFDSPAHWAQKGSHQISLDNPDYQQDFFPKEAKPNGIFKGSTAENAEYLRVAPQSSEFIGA

Structure (SMILES): C=CC(=O)Nc1cccc(Nc2nc(Nc3ccc(N4CCN(C)CC4)cc3)nc3ccc(F)cc23)c1
- inhibition (Mus musculus [1]): Dose-Dependent Effect
- Activity (HCC827 [2]): Dose-Dependent Effect
- Activity (NCI-H1975 [3]): Active
- inhibition (Mus musculus [4]): Active
- Activity [5]: Non-Toxic
- Activity (A549 [6]): Non-Toxic
- Activity (NCI-H1975 [7]): Active
- clearance [8]: 16.1 mL/min/kg
- Activity (NCI-H1975 [9]): Active
- Activity [10]: Non-Toxic
- Activity [11]: Non-Toxic
- Activity [12]: Active
- Vd [13]: 2.52 L/kg
- IC50 [14]: 603 nM
- Activity (HCC827 [15]): Active
- AUC(0-t) [16]: 1040 ng·h/mL
- inhibition (Mus musculus [17]): Active
- half-life [18]: 72.9 h
- activity at 1 µM (wild type EGFR): 96%
- CI (NCI-H1975 [19]): <2
- Activity [20]: Non-Toxic
- IC50 [21]: 3.5 nM
- AUC(0-inf) [22]: 1050 ng·h/mL
- Activity [23]: Non-Toxic
- Activity (A549 [24]): Non-Toxic
- inhibition [25]: Active
- Activity (NCI-H1975 [26]): Dose-Dependent Effect
- half-life [27]: 1.76 h
- Activity [28]: 20%
- Activity (A549 [29]): Non-Toxic

Structure (SMILES): C=CC(=O)Nc1cc(Nc2nccc(-c3cn(C)c4ccccc34)n2)c(OC)cc1N(C)CCN(C)C [OSIMERTINIB]
- inhibition (Mus musculus [30]): Active
